Patent US20140114067A1, “BENZIMIDAZOLE DERIVATIVES AS MITOCHONDRIAL FUNCTION MODULATORS” (KOREA INSTITUTE OF SCIENCE AND TECHNOLOGY, priority 2012, published 2014)

How the values were obtained:
HT-22 cells [1] = assay: Recovery of ATP production capability reduced by amyloid beta (luciferin/luciferase); type: cell-based; settings: compound 5 μM, amyloid beta 5 μM, 7 hours, amyloid beta vehicle control without drug = 0%
Procedure: (§1) Meanwhile, the compound represented by Formula 1 according to the present invention is evaluated through a test to determine recovery of mitochondrial functions damaged by amyloid beta, as described in the following Test Example. After the test, the results are shown in terms of the percentages of mitochondrial function disorder caused by amyloid beta. The degree of mitochondrial function disorder caused by amyloid beta is taken as 0% and the normal condition in the absence of amyloid beta is shown as 100%.
To a transparent 96-well plate, HT-22 cells are inoculated in a number of 10,000 per well one day before the test, followed by treatment with each compound to a final concentration of 5 μM per well. The cells are cultured at 37° C. for 10 minutes. Particularly, for each drug, two wells are treated with amyloid beta (5 μM) and the other two wells are treated with the vehicle control (5 μM DMSO). After the treatment, the cells are cultured at 37° C. for 7 hours. The cells treated with each drug are washed twice with PBS, lysed with Triton X-100 (1% in TSBT buffer) and agitated at room temperature for 5 minutes. […] is used to determine the protein amount of each well, and the same amount of protein taken from each well is added to a white 96-well plate. Then, […] (Molecular Probe, USA) for ATP determination containing d-luciferin and luciferase is added thereto and emission peaks generated from each of the wells are determined. After the determination, the peaks are normalized by taking the vehicle control to which amyloid beta is added without treatment with any drug as 0%.

HT-22 cells [2] = assay: Improvement in mitochondrial membrane potential dropped by amyloid beta (JC-1 dye); type: cell-based; settings: compound 5 μM, amyloid beta 5 μM, 3 hours, JC-1 green:red ratio, amyloid beta damage = 0%, normal = 100%
Procedure: as §1
To a transparent 96-well plate, HT-22 cells are inoculated in a number of 30,000 per well one day before the test. On the next day, JC-1 dye (Stratagen, USA) is diluted with Opti-MEM containing no phenol red to a concentration of 7.5 μM, and the resultant dilution is used to treat the cells for 1 hour and 15 minutes. The dyed cells are washed twice with phosphate buffer solution (PBS), followed by treatment with each compound to a final concentration of 5 μM per well. Then, the cells are cultured at 37° C. for 10 minutes. Particularly, for each drug, two wells are treated with amyloid beta (5 μM) and the other two wells are treated with the vehicle control (5 μM DMSO). Then, the cells are cultured at 37° C. for 3 hours. The fluorescence intensity of each well is read by using a fluorescence plate reader at 485/535 nm (green/J-monomer) and 560/595 nm (red/J-aggregate). Then, the ratio of green:red is calculated and the results are normalized by taking the change of the ratio between addition of amyloid beta and no-addition of amyloid beta in the vehicle control non-treated with drugs as 100%.

SMILES	ATP Production Capability Recovery (%) (5 μM) (HT-22 cells [1])	Improvement in Membrane Potential (%) (5 μM) (HT-22 cells [2])
Cc1ccc(C(C)C)cc1NC(=O)Cn1c(-c2cc(Cl)ccc2Cl)nc2ccc(Cl)cc21 [Compound 25, 2-(6-chloro-2-(2,5-dichlorophenyl)-1H-benzo[d]imidazol-1-yl)-N-(5-isopropyl-2-methylphenyl)acetamide]	69	87
COc1ccc(OC)c(Cc2nc3ccccc3n2CC(=O)Nc2cc(Cl)cc(Cl)c2)c1 [Compound 18, N-(3,5-dichlorophenyl)-2-(2-(2,5-dimethoxybenzyl)-1H-benzo[d]imidazol-1-yl)acetamide]	94	68
Cc1cccc(C(C)(C)C)c1NC(=O)Cn1c(-c2ccccc2)nc2ccccc21 [Compound 16, N-(2-tert-butyl-6-methylphenyl)-2-(2-phenyl-1H-benzo[d]imidazol-1-yl)acetamide]	55	65
COc1ccc(OC)c(Cc2nc3ccccc3n2CC(=O)Nc2cc(C(C)(C)C)cc(C(C)(C)C)c2)c1 [Compound 17, N-(3,5-di-tert-butylphenyl)-2-(2-(2,5-dimethoxybenzyl)-1H-benzo[d]imidazol-1-yl)acetamide]	46	54
Cc1ccc(C(C)C)cc1NC(=O)Cn1c(Cc2c(Cl)cccc2Cl)nc2ccccc21 [Compound 23, 2-(2-(2,6-dichlorobenzyl)-1H-benzo[d]imidazol-1-yl)-N-(5-isopropyl-2-methylphenyl)acetamide]	95	74
